# Data reported in the supplement of paper PMC10307832.
# Key:
# Test in all cases: relative viability (nuclei count vs DMSO), 5 days (fraction); higher = more cells survive
# H3255 = tested on: H3255
# Method in brief: (§1)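 Lung cancer cell lines were pin-tool dosed in 1536-well plates on the day after seeding, with either a lone drug or a fixed anchor-drug dose plus five library-drug doses (not always all listed) in √10 steps. Nuclei were counted on 4× images after 5 days. Relative viability is the ratio of treated-well to vehicle-well nuclei counts, with each value a median of duplicate plates.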
# NCI-H650 = tested on: NCI-H650
# Method in brief: as §1
# NCI-H2087 = tested on: NCI-H2087
# Method in brief: as §1
# NCI-H520 = tested on: NCI-H520
# Method in brief: as §1
# NCI-H2126 = tested on: NCI-H2126
# Method in brief: as §1
# NCI-H1915 = tested on: NCI-H1915
# Method in brief: as §1
# ChaGo-K-1 = tested on: ChaGo-K-1
# Method in brief: as §1
# NCI-H1666 = tested on: NCI-H1666
# Method in brief: as §1
# NCI-H661 = tested on: NCI-H661
# Method in brief: as §1
# EPLC-272H = tested on: EPLC-272H
# Method in brief: as §1
# PC-14 = tested on: PC-14
# Method in brief: as §1
# NCI-H322M = tested on: NCI-H322M
# Method in brief: as §1
# NCI-H23 = tested on: NCI-H23
# Method in brief: as §1
# RERF-LC-KJ = tested on: RERF-LC-KJ
# Method in brief: as §1
# COR-L 105 = tested on: COR-L 105
# Method in brief: as §1
# NCI-H2347 = tested on: NCI-H2347
# Method in brief: as §1
# HCC-78 = tested on: HCC-78
# Method in brief: as §1
# 201T = tested on: 201T
# Method in brief: as §1
# HCC-827 = tested on: HCC-827
# Method in brief: as §1
# LCLC-97TM1 = tested on: LCLC-97TM1
# Method in brief: as §1
# NCI-H2405 = tested on: NCI-H2405
# Method in brief: as §1
# NCI-H647 = tested on: NCI-H647
# Method in brief: as §1
# LC-2-ad = tested on: LC-2-ad
# Method in brief: as §1
compound,measurement,setting,value
CC1(C)CCC(c2ccc(Cl)cc2)=C(CN2CCN(c3ccc(C(=O)NS(=O)(=O)c4ccc(N[C@H](CCN5CCOCC5)CSc5ccccc5)c(S(=O)(=O)C(F)(F)F)c4)cc3)CC2)C1 [Navitoclax] + CS(=O)(=O)N1CCN(Cc2cc3nc(-c4cccc5[nH]ncc45)nc(N4CCOCC4)c3s2)CC1 [Pictilisib] (partner 1 µM),relative viability,H3255; first compound 0.005 µM,0.524
same,relative viability,H3255; first compound 0.01581 µM,0.528
same,relative viability,H3255; first compound 0.05 µM,0.549
same,relative viability,H3255; first compound 0.1581 µM,0.45
same,relative viability,H3255; first compound 0.5 µM,0.461
same,relative viability,NCI-H650; first compound 0.005 µM,0.765
same,relative viability,NCI-H650; first compound 0.01581 µM,0.948
same,relative viability,NCI-H650; first compound 0.05 µM,0.869
same,relative viability,NCI-H650; first compound 0.1581 µM,0.972
same,relative viability,NCI-H650; first compound 0.5 µM,0.448
same,relative viability,NCI-H2087; first compound 0.005 µM,0.806
same,relative viability,NCI-H2087; first compound 0.01581 µM,0.976
same,relative viability,NCI-H2087; first compound 0.05 µM,0.54
same,relative viability,NCI-H2087; first compound 0.1581 µM,1.02
same,relative viability,NCI-H2087; first compound 0.5 µM,0.887
same,relative viability,NCI-H520; first compound 0.005 µM,0.305
same,relative viability,NCI-H520; first compound 0.01581 µM,0.374
same,relative viability,NCI-H520; first compound 0.05 µM,0.3
same,relative viability,NCI-H520; first compound 0.1581 µM,0.322
same,relative viability,NCI-H520; first compound 0.5 µM,0.281
same,relative viability,NCI-H2126; first compound 0.005 µM,0.529
same,relative viability,NCI-H2126; first compound 0.01581 µM,0.507
same,relative viability,NCI-H2126; first compound 0.05 µM,0.493
same,relative viability,NCI-H2126; first compound 0.1581 µM,0.49
same,relative viability,NCI-H2126; first compound 0.5 µM,0.451
same,relative viability,NCI-H1915; first compound 0.005 µM,0.893
same,relative viability,NCI-H1915; first compound 0.01581 µM,1.02
same,relative viability,NCI-H1915; first compound 0.05 µM,1.01
same,relative viability,NCI-H1915; first compound 0.1581 µM,0.933
same,relative viability,NCI-H1915; first compound 0.5 µM,0.902
same,relative viability,ChaGo-K-1; first compound 0.005 µM,0.645
same,relative viability,ChaGo-K-1; first compound 0.01581 µM,0.799
same,relative viability,ChaGo-K-1; first compound 0.05 µM,0.648
same,relative viability,ChaGo-K-1; first compound 0.1581 µM,0.641
same,relative viability,ChaGo-K-1; first compound 0.5 µM,0.667
same,relative viability,NCI-H1666; first compound 0.005 µM,0.562
same,relative viability,NCI-H1666; first compound 0.01581 µM,0.609
same,relative viability,NCI-H1666; first compound 0.05 µM,0.503
same,relative viability,NCI-H1666; first compound 0.1581 µM,0.394
same,relative viability,NCI-H1666; first compound 0.5 µM,0.475
same,relative viability,NCI-H661; first compound 0.005 µM,0.48
same,relative viability,NCI-H661; first compound 0.01581 µM,0.443
same,relative viability,NCI-H661; first compound 0.05 µM,0.379
same,relative viability,NCI-H661; first compound 0.1581 µM,0.406
same,relative viability,NCI-H661; first compound 0.5 µM,0.465
same,relative viability,EPLC-272H; first compound 0.005 µM,0.321
same,relative viability,EPLC-272H; first compound 0.1581 µM,0.325
same,relative viability,EPLC-272H; first compound 0.5 µM,0.306
same,relative viability,PC-14; first compound 0.005 µM,0.648
same,relative viability,PC-14; first compound 0.01581 µM,0.956
same,relative viability,PC-14; first compound 0.05 µM,0.746
same,relative viability,PC-14; first compound 0.1581 µM,0.748
same,relative viability,PC-14; first compound 0.5 µM,0.68
same,relative viability,NCI-H322M; first compound 0.005 µM,0.485
same,relative viability,NCI-H322M; first compound 0.01581 µM,0.526
same,relative viability,NCI-H322M; first compound 0.05 µM,0.565
same,relative viability,NCI-H322M; first compound 0.1581 µM,0.516
same,relative viability,NCI-H322M; first compound 0.5 µM,0.562
same,relative viability,NCI-H23; first compound 0.005 µM,0.479
same,relative viability,NCI-H23; first compound 0.01581 µM,0.498
same,relative viability,NCI-H23; first compound 0.05 µM,0.483
same,relative viability,NCI-H23; first compound 0.1581 µM,0.433
same,relative viability,NCI-H23; first compound 0.5 µM,0.504
same,relative viability,RERF-LC-KJ; first compound 0.005 µM,0.446
same,relative viability,RERF-LC-KJ; first compound 0.01581 µM,0.55
same,relative viability,RERF-LC-KJ; first compound 0.05 µM,0.589
same,relative viability,RERF-LC-KJ; first compound 0.1581 µM,0.476
same,relative viability,RERF-LC-KJ; first compound 0.5 µM,0.568
same,relative viability,COR-L 105; first compound 0.005 µM,0.352
same,relative viability,COR-L 105; first compound 0.01581 µM,0.45
same,relative viability,COR-L 105; first compound 0.05 µM,0.41
same,relative viability,COR-L 105; first compound 0.1581 µM,0.368
same,relative viability,COR-L 105; first compound 0.5 µM,0.308
same,relative viability,NCI-H2347; first compound 0.005 µM,0.63
same,relative viability,NCI-H2347; first compound 0.01581 µM,0.702
same,relative viability,NCI-H2347; first compound 0.05 µM,0.649
same,relative viability,NCI-H2347; first compound 0.1581 µM,0.395
same,relative viability,NCI-H2347; first compound 0.5 µM,0.734
same,relative viability,HCC-78; first compound 0.005 µM,0.184
same,relative viability,HCC-78; first compound 0.01581 µM,0.261
same,relative viability,HCC-78; first compound 0.1581 µM,0.232
same,relative viability,HCC-78; first compound 0.5 µM,0.205
same,relative viability,201T; first compound 0.005 µM,0.661
same,relative viability,201T; first compound 0.01581 µM,0.738
same,relative viability,201T; first compound 0.05 µM,0.677
same,relative viability,201T; first compound 0.1581 µM,0.65
same,relative viability,201T; first compound 0.5 µM,0.707
same,relative viability,HCC-827; first compound 0.005 µM,1.12
same,relative viability,HCC-827; first compound 0.01581 µM,1
same,relative viability,HCC-827; first compound 0.05 µM,0.933
same,relative viability,HCC-827; first compound 0.1581 µM,0.78
same,relative viability,HCC-827; first compound 0.5 µM,0.975
same,relative viability,LCLC-97TM1; first compound 0.005 µM,0.255
same,relative viability,LCLC-97TM1; first compound 0.01581 µM,0.146
same,relative viability,LCLC-97TM1; first compound 0.05 µM,0.193
same,relative viability,LCLC-97TM1; first compound 0.1581 µM,0.187
same,relative viability,LCLC-97TM1; first compound 0.5 µM,0.153
same,relative viability,NCI-H2405; first compound 0.005 µM,0.409
same,relative viability,NCI-H2405; first compound 0.01581 µM,0.754
same,relative viability,NCI-H2405; first compound 0.05 µM,0.434
same,relative viability,NCI-H2405; first compound 0.1581 µM,0.451
same,relative viability,NCI-H2405; first compound 0.5 µM,0.41
same,relative viability,NCI-H647; first compound 0.005 µM,0.539
same,relative viability,NCI-H647; first compound 0.01581 µM,0.396
same,relative viability,NCI-H647; first compound 0.05 µM,0.385
same,relative viability,NCI-H647; first compound 0.1581 µM,0.422
same,relative viability,NCI-H647; first compound 0.5 µM,0.453
same,relative viability,LC-2-ad; first compound 0.005 µM,0.614
same,relative viability,LC-2-ad; first compound 0.01581 µM,0.654
same,relative viability,LC-2-ad; first compound 0.05 µM,0.324
same,relative viability,LC-2-ad; first compound 0.1581 µM,0.447
same,relative viability,LC-2-ad; first compound 0.5 µM,0.38
